# Laboratory results published in patent publication US20090149453A1, “METHODS AND COMPOSITIONS FOR TREATING BACTERIAL INFECTIONS AND DISEASES ASSOCIATED THEREWITH” (ACTIVBIOTICS PHARMA LLC, priority 2002, published 2009).
# “Also recorded” adds a separate entry of the source. Like-named read-outs stand apart in the source and are kept apart here.
# Legend:
# Assay type in all cases: cell-based, Staphylococcus aureus
# S. aureus 29213 = experiment: MIC testing according to NCCLS standard; settings: S. aureus 29213, NCCLS standard MIC testing
# [1] = system: S. aureus strain ATCC 29213, log-phase
# Procedure: In order to characterize the population of the cultures shown in FIG. 1, aliquots at the various time points/treatments were tested for the presence of Rif-resistant mutants.
# Cultures were also examined as described above for the number of cfu/ml present that were resistant to Rif (FIG. 4).
# (§1) For log-phase studies, cells were grown to an optical density of 0.5 at 600 nm, which represents a culture density of 5×10^8 colony forming units (cfu)/ml for S. aureus and deviates from densities typically used in time-kill type assays (1×10^7 cfu/ml). We chose to start at a higher density because this density is more likely to reflect in vivo bioburden than lower starting densities. In addition, this starting density is critical for monitoring the emergence of ansamycin-resistant mutants because it insures that there is a starting resident population of such resistant mutants at the start of the experiment. The 10^−8 frequency of mutants to Rfz leads to a theoretical number of five mutants per ml of culture at this cell density.
# (§2) For stationary phase studies, cultures were grown to an optical density of 2.2 to 2.4 at 600 nm, which represents approximately 5×10^9 cfu/ml; there would exist approximately 50 resistant mutants per nil in such a stationary phase culture. Drugs were added to the cultures to start the experiment, and then aliquots were removed at various time points, diluted in MHB if appropriate, and applied to 100 mm MHA and MHA plates containing Rif at 1 μg/ml. These plates were incubated at 35° C. for 18-24 hours, and then colonies manually counted to determine the number of cfu per nil of culture for the specific time-point/treatment. […] The Rif-containing plates were used to determine the number of Rfz-resistant bacteria present in the cultures for the specific time-point/treatment. Untreated control cultures were included in each experiment.
# [2] = system: S. aureus strain ATCC 29213, log-phase; experiment: Viability (cfu/ml) of log-phase cultures exposed to drugs, plated on non-selective MHA; settings: for decrease in cfu/ml: drug alone: Rif 0.1 μg/ml (initial drop), Van 10 μg/ml
# [3] = system: S. aureus 29213, stationary-phase; experiment: Rif-resistant cfu/ml in drug-treated stationary-phase cultures; settings: Example 3, stationary-phase, Van or Rfz alone; Van 15 μg/ml plus Rfz 0.1 μg/ml
# Procedure: The emergence of Rif/Rfz-resistant cells in cultures in these experiments was monitored as previously described; the results are shown in FIG. 6.
# as §2
# [4] = system: S. aureus 29213, stationary-phase; experiment: Viability (cfu/ml) of stationary-phase cultures exposed to drugs; settings: for killing effect against stationary phase cultures (summary, words): stationary phase (non-multiplying), alone or in combination; for log killing of stationary-phase cultures: summary, over 48 hours, single drugs or combination
# Procedure: Cultures of S. aureus 29213 were grown to stationary-phase (an OD of 2.2 to 2.4 at 600 nm), then treated with Van and Rfz, either alone or in combination (FIG. 5; concentrations listed are in μg/ml). Rfz was used at 0.1 μg/ml, while Van was used at 15 μg/ml and 30 μg/ml, the latter concentration based on the fact that the starting culture was at a much higher density than was the log-phase cultures used in the experiments described above. It was assumed that more Van might be required to give a prolonged killing effect. In addition, one culture was treated with 15 μg/ml Van at the start of the experiment and then again 24 hours later. At 0, 24 and 48 hours, the number of viable cells was determined by plating on non-selective medium as described above.
# The bacterial strain used in this study was “wild-type” S. aureus strain ATCC 29213. The strain was grown in Mueller Hinton II Broth (MHB; cationadjusted; VWR) and on Mueller Hinton Agar (MHA; VWR) plates that were made according to the manufacturer's instructions. Van (Calbiochem) was resuspended in sterile water (Fisher) at 10 mg/ml, while Rif (Calbiochem) and Rfz (ActivBiotics) were resuspended in 100% DMSO (J. T. Baker) at 1 mg/ml. All drugs were stored at −80° C. in single-use aliquots.
# S. aureus strain ATCC 29213 was grown on an MHA plate at 35° C. for 18 hours. Colonies (3-5) were used to inoculate 50-100 ml of cation-adjusted MHB in a 500 ml Ehrlenmeyer flask and grown at 37° C. in a water bath shaker at 240 rpm.
# as §2
# S. aureus = experiment: Frequency of resistant mutants; settings: resistance to Rfz
# Procedure: as §1
Compound,"MIC (S. aureus 29213; Staphylococcus aureus, read-out: MIC) [mg/L]",Rif-resistant cfu [1] [logs],"decrease in cfu/ml ([2]; Example 1, log-phase) [log]",emergence of Rif/Rfz-resistant colonies [3],"emergence of Rif-resistant cells ([1]; Example 1, log-phase, Van 10 μg/ml alone or with Rif/Rfz 0.1 μg/ml)","viability of the cultures during treatment ([4]; Example 3, stationary-phase, Van alone 15 or 30 μg/ml)","killing effect against stationary phase cultures (summary, words) [4]",log killing of stationary-phase cultures [4],"significant killing ([2]; log-phase dense cultures, Van alone, after 48 hours of treatment) [logs]","killing effect at increased concentration ([2]; log-phase, vancomycin alone 15 μg/ml)",MIC (S. aureus 29213) [mg/L],frequency of mutants (S. aureus),"Rif-resistant cfu ([1]; Example 1, log-phase, 0.1 μg/ml alone, in 24 hours) [logs]","appearance of Rif-resistant cfu in log-phase cultures (summary, words) ([1]; log-phase, Rfz single agent or co-treatment with Van)","decrease of cfu ([4]; Example 3, stationary-phase, Rfz 0.1 μg/ml alone)","drop in cfu/ml (logs killed) ([2]; Example 1, log-phase, 0.1 μg/ml alone, in 4 hours)","reduction of cfu/ml of the culture (cidality) ([2]; Example 2, log-phase, Rfz 0.1 μg/ml (6.5× MIC) alone, within 6 hours)","cfu/ml level after regrowth ([2]; Example 2, log-phase, Rfz alone 0.1 or 0.025 μg/ml, over 48 hours)","reduction of cfu/ml at the lower concentration compared to the higher ([2]; log-phase, Rfz 0.025 μg/ml (1.6× MIC) vs 0.1 μg/ml (6.5× MIC))"
"CO[C@H]1/C=C/O[C@@]2(C)Oc3c(C)c(O)c4c(O)c(c(/C=N/N5CCN(C)CC5)c(O)c4c3C2=O)NC(=O)/C(C)=C\C=C\[C@H](C)[C@H](O)[C@@H](C)[C@@H](O)[C@@H](C)[C@H](OC(C)=O)[C@@H]1C [Rif, rifampicin, reference compound]",0.015,8,~2.5,,,,,,,,,,,,,,,,
"CN[C@H](CC(C)C)C(=O)N[C@H]1C(=O)N[C@@H](CC(N)=O)C(=O)N[C@H]2C(=O)N[C@H]3C(=O)N[C@H](C(=O)N[C@H](C(=O)O)c4cc(O)cc(O)c4-c4cc3ccc4O)[C@H](O)c3ccc(c(Cl)c3)Oc3cc2cc(c3O[C@@H]2O[C@H](CO)[C@@H](O)[C@H](O)[C@H]2O[C@H]2C[C@](C)(N)[C@H](O)[C@H](C)O2)Oc2ccc(cc2Cl)[C@H]1O [Van, vancomycin, reference compound]",,,0.5,Resistant colonies did not appear,little or no increase in the number of Rif-resistant cells,did not decrease significantly,little or no killing effect,approximately 1 log,3,sufficient for sustained killing,,,,,,,,,
3′-hydroxy-5′-(4-isobutyl-1-piperazinyl) benzoxazinorifamycin [Rfz],,,,Resistant colonies did not appear,,,little or no killing effect,approximately 1 log,,,0.015,10^−8,8,dramatic increase in Rif-resistant cfu/ml within 10 hours,about 1 log,approximately 3.5 logs,approximately 3 logs,approximately 10×10^8 cfu/ml,just as effective; also recorded: as effective as 6.5× the MIC levels
